According to patent publication US7736646B2, “Methods for modulating angiogenesis with apelin compositions” (Arizona Board of Regents on behalf of the University of …, priority 2003, dated 2010):

Legend:
[1] = test system: primary rat cardiomyocyte cells; assay: Cobalt chloride hypoxia-mimic treatment, transcript levels by PCR; format: cell-based; settings: 150 μM, 4 hours, versus untreated cells
Method: Because HIF-1α consensus sites are present in the apelin regulatory region, experiments were conducted to determine whether apelin expression is hypoxia responsive and regulated by HIF-1α. Upregulation of apelin expression under hypoxic conditions would be consistent with a role for apelin in promotion of tumor angiogenesis. Preliminary experiments were carried out using primary rat cardiomyocyte cells in culture and treatment with cobalt chloride. This procedure is accepted as an equivalent to culturing cells under hypoxic conditions because HIF-1α is a metal responsive transcription protein (Ladoux and Frelin, 1994; Piret et al., 2002; Maxwell and Salnikow, 2004). Fetal rat cardiac myocytes were plated and cultured in DMEM (Invitrogen, Carlsbad, Calif.) supplemented with 10% fetal calf serum and penicillin/streptomyocin at 37° C. After four days of culture, medium was removed, and cells were treated with fresh media containing 150 μM Cobalt Chloride (Piret et al., 2002). […] After 4 hours of culture, cells were harvested, and total RNA was extracted using the Trizol procedure according to the manufacturers recommendations (Invitrogen, Carlsbad, Calif.).
Following PCR, amplification products were fractionated on an agarose gel and visualized using ethidium bromide staining under ultraviolet light (FIG. 12).

BAE/APJ#2 cells [2] = assay: Endothelial cell proliferation assay (BrdU incorporation); format: cell-based, bovine
Method: SU1498 was included in proliferation cultures at a concentration of 10 ng/ml and results were assayed using BrdU incorporation. After growth factor incubation, BrdU was added to each well at a final concentration of 10 μM for 2 hours, cells were washed, and fixed for BrdU immunocytochemistry.
Cells were fixed in 100% ice cold methanol at 4° C. for 2 hours to overnight. Prior to staining, cells were air dried and rehydrated for 3 minutes with PBS buffer. DNA was denatured at 37° C. with 2 M HCl, and neutralized with 2 washes for 5 minutes in 0.1 M borate buffer (pH 8.5). […] FITC-labeled anti-BrdU antibody (5 μg/ml) in block was added for 1 hour at room temperature. Cells were counterstained with propidium iodide following several washes in PBS buffer. For each experiment, 4 random fields were photographed for determination of percentage BrdU labeling.

BAE/APJ#2 cells [3] = settings: 10 ng/ml in bottom chamber, 16 hours
Method: Bovine aortic endothelial cells (BAE) were cultured in DMEM supplemented with 10% fetal bovine serum (FBS) and penicillin/streptomycin. For generation of stable cell lines expressing APJ, the mouse APJ coding region was cloned into the pcDNA 3.1 vector downstream of the CMV promoter, in frame with a myc epitope at the C-terminal end of the protein, and upstream of the neomycin gene. […] Colonies were isolated and screened using RT-PCR for expression of mouse APJ and also by immunocytochemistry for expression of the myc epitope.
Cell migration assays were performed using Transwell cell culture migration chambers (Becton Dickinson) with 8 micron pore size. BAE/APJ#2 cells were plated in serum free conditions in 100 μl at a concentration of 1×10^5 ml in the upper chamber of the migration chamber. Following cell attachment to the membrane, 10 ng/ml of growth factor was added to the bottom chamber, in a total volume of 0.5 ml. Cells were stimulated with growth factor in DMEM for 16 hours, or DMEM alone, at which time the cells remaining in the upper chamber were removed using a cotton tip applicator. Following a brief wash with PBS the remaining cells were fixed in 3.7% formaldehyde at 4° C. for 1 hour. Cells attached to the membrane in the lower chamber were stained with DAPI, and 3 random fields were counted for each experimental condition.

[4] = test system: chicken chorioallantoic membrane (CAM); settings: 50 ng on filter disc, three days, compared to control PBS
Method: Chicken eggs were incubated at 37° C. in a humidified chamber. On day 10 of development, a small window was made in the outer shell of the egg, and the CAM was released from its attachment to the inner shell membrane. A larger window was then made in the egg to allow for addition of the filter paper containing growth factor. Filter discs (3MM Whatman) of 7-8 mm diameter were pretreated with 10 μl of 0.1% cortisone acetate (Sigma) solution to avoid inflammation of the CAM. The filter discs were air dried prior to application of growth factors. […] After air-drying, the filter discs were placed on the CAM, and eggs were returned to the incubator for three days. Filter discs and the attached CAM were then excised, washed with PBS, trimmed to the size of the disc, and photographed for quantitative analysis (FIGS. 7A and 7B). The number of vessel branch points was determined using a blind protocol. The results are shown as the mean of three independent experiments +/−s.e.m. (FIG. 7C).

[Cl][Co][Cl] [Cobalt Chloride]
apelin expression (transcript level, PCR) [1]: significantly increased

CC(C)c1cc(/C=C(\C#N)C(=O)NCCCc2ccccc2)cc(C(C)C)c1O [SU1498, reference compound]
effect on VEGF-mediated proliferation (BAE/APJ#2 cells [2]; SU1498 10 ng/ml, VEGF 10 ng/ml): partially inhibits
effect on apelin-mediated proliferation (BAE/APJ#2 cells [2]; SU1498 10 ng/ml, apelin 10 ng/ml): no significant effect

VEGF [reference compound]
endothelial cell migration (cells per field) (BAE/APJ#2 cells [3]): increase in migration

apelin-13
blood vessel formation in the CAM [4]: increased
leakage of blood vessels in the CAM [4]: increased
endothelial cell migration (cells per field) (BAE/APJ#2 cells [3]): promotes endothelial cell migration
endothelial cell proliferation (percentage BrdU labeling) (BAE/APJ#2 cells [2]; 10 ng/ml, 24 hours, serum starved cells): promotes endothelial cell proliferation to a similar extent as VEGF
endothelial cell proliferation in the presence of the VEGF inhibitor SU1498 (BAE/APJ#2 cells [2]; apelin 10 ng/ml with SU1498 10 ng/ml): still able to promote proliferation
